Measurements taken from patent US4728726A, “GRF analogs IIIb” (The Salk Institute for Biological Studies, priority 1986, dated 1988).
Square brackets hold non-standard residues; d marks the D form. Ends that are not written are not given here. Peptide text beside a SMILES is read from it. Nle = CCCC[C@H](N)C(=O)O

Tested on: cells of rat pituitary glands
Experiment: in vitro assay of growth hormone release from cultured rat pituitary cells (ir GH by radioimmunoassay)
Type: cell-based
Settings: potency for GH release relative to standard hGRF(1-40)-OH = 100%; equimolar concentrations; incubation 3 to 4 hours
Description: To determine the relative effectiveness of certain representative synthetic peptides to promote the release of growth hormone, in vitro assays are carried out using synthetic hpGRF(1-40)-OH as a standard in side-by-side comparison with equimolar concentrations of the representative analogs which have been synthesized. Cultures are used which include cells of rat pituitary glands removed some three to five days previously. Such cultures are considered optimal for the secretion of growth hormone and are used for the comparative testing, in the general manner described in Vale et al. Endocrinology, 91, 562-572 (1972) and as more particularly described in Vale et al. Endocrinology, 112, 1553-1555 (1983). Incubation with the substance to be tested is carried out for 3 to 4 hours, and aliquots of the culture medium are removed and processed to measure their contents in immunoreactive GH(ir GH) by a well-characterized radioimmunoassay.

Point of comparison: `CCCC[C@H](NC(=O)[C@@H](NC(=O)[C@H](CC(=O)O)NC(=O)[C@H](CCC(N)=O)NC(=O)[C@H](CC(C)C)NC(=O)[C@H](CC(C)C)NC(=O)[C@H](CCCCN)NC(=O)[C@H](CCCNC(=N)N)NC(=O)[C@H](C)NC(=O)[C@H](CO)NC(=O)[C@H](CC(C)C)NC(=O)[C@H](CCC(N)=O)NC(=O)CNC(=O)[C@H](CC(C)C)NC(=O)[C@@H](NC(=O)[C@H](CCCCN)NC(=O)[C@H](CCCNC(=N)N)NC(=O)[C@H](Cc1ccc(O)cc1)NC(=O)[C@H](CO)NC(=O)[C@H](CC(N)=O)NC(=O)[C@@H](NC(=O)[C@H](Cc1ccccc1)NC(=O)[C@@H](NC(=O)[C@H](C)NC(=O)[C@H](CC(=O)O)NC(=O)[C@@H](C)NC(=O)[C@@H](N)Cc1ccc(O)cc1)[C@@H](C)CC)[C@@H](C)O)C(C)C)[C@@H](C)CC)C(=O)N[C@@H](CC(N)=O)C(=O)N[C@@H](CCCNC(=N)N)C(=O)NCC` [[D-Ala^2, Nle^27, Asn^28]-hGRF(1-29)-NHEt] (H-Y[dA]DAIFTNSYRKVLGQLSARKLLQDI[Nle]NR-NHEt), Comparison % 1714%. Against it:
- CCCC[C@H](NC(=O)[C@@H](NC(=O)[C@H](CC(=O)O)NC(=O)[C@H](CCC(N)=O)NC(=O)[C@H](CC(C)C)NC(=O)[C@H](CC(C)C)NC(=O)[C@H](CCCCN)NC(=O)[C@H](CCCNC(=N)N)NC(=O)[C@H](C)NC(=O)[C@H](CO)NC(=O)[C@H](CC(C)C)NC(=O)[C@H](CCC(N)=O)NC(=O)CNC(=O)[C@H](CC(C)C)NC(=O)[C@@H](NC(=O)[C@H](CCCCN)NC(=O)[C@H](CCCNC(=N)N)NC(=O)[C@H](Cc1ccc(O)cc1)NC(=O)[C@H](CO)NC(=O)[C@H](CC(N)=O)NC(=O)[C@@H](NC(=O)[C@H](Cc1ccccc1)NC(=O)[C@@H](NC(=O)[C@H](C)NC(=O)[C@H](CC(=O)O)NC(=O)[C@@H](C)NC(=O)[C@@H](N)Cc1ccc(O)cc1)[C@@H](C)CC)[C@@H](C)O)C(C)C)[C@@H](C)CC)C(=O)N[C@@H](CO)C(=O)N[C@@H](CCCNC(=N)N)C(N)=O [[D-Ala^2, Nle^27]-hGRF(1-29)-NH2] — lower, 429%
- hGRF(1-40)-OH (YADAIFTNSYRKVLGQLSARKLLQDIMSRQQGESNQERGA-OH; UniProt P01286 32-71, looked up, fragment) [synthetic human pancreatic (tumor) GH releasing factor (1-40) free acid, used as standard for this test, reference compound] — lower, 100%
- CCCC[C@H](NC(=O)[C@@H](NC(=O)[C@H](CC(=O)O)NC(=O)[C@H](CCC(N)=O)NC(=O)[C@H](CC(C)C)NC(=O)[C@H](CC(C)C)NC(=O)[C@H](CCCCN)NC(=O)[C@H](CCCNC(=N)N)NC(=O)[C@H](C)NC(=O)[C@H](CO)NC(=O)[C@H](CC(C)C)NC(=O)[C@H](CCC(N)=O)NC(=O)CNC(=O)[C@H](CC(C)C)NC(=O)[C@@H](NC(=O)[C@H](CCCCN)NC(=O)[C@H](CCCNC(=N)N)NC(=O)[C@H](Cc1ccc(O)cc1)NC(=O)[C@H](CO)NC(=O)[C@H](CC(N)=O)NC(=O)[C@@H](NC(=O)[C@H](Cc1ccccc1)NC(=O)[C@@H](NC(=O)[C@H](C)NC(=O)[C@H](CC(=O)O)NC(=O)[C@H](C)NC(=O)[C@@H](N)Cc1ccc(O)cc1)[C@@H](C)CC)[C@@H](C)O)C(C)C)[C@@H](C)CC)C(=O)N[C@@H](CO)C(=O)N[C@@H](CCCNC(=N)N)C(N)=O [[Nle^27]-hGRF(1-29)-NH2] — lower, 238%
- CCCC[C@H](NC(=O)[C@@H](NC(=O)[C@H](CCC(=O)O)NC(=O)[C@H](Cc1c[nH]cn1)NC(=O)[C@H](CC(C)C)NC(=O)[C@H](CC(C)C)NC(=O)[C@H](CCCCN)NC(=O)[C@H](CCCNC(=N)N)NC(=O)[C@H](C)NC(=O)[C@H](Cc1ccc(O)cc1)NC(=O)[C@H](CC(C)C)NC(=O)[C@H](CCC(N)=O)NC(=O)CNC(=O)[C@H](CC(C)C)NC(=O)[C@@H](NC(=O)[C@H](CCCNC(=N)N)NC(=O)[C@H](CCCNC(=N)N)NC(=O)[C@H](Cc1ccc(O)cc1)NC(=O)[C@H](CO)NC(=O)[C@H](CO)NC(=O)[C@@H](NC(=O)[C@H](Cc1ccccc1)NC(=O)[C@@H](NC(=O)[C@H](C)NC(=O)[C@H](CC(=O)O)NC(=O)[C@H](C)NC(=O)[C@@H](N)Cc1c[nH]cn1)[C@@H](C)CC)[C@@H](C)O)[C@@H](C)CC)[C@@H](C)CC)C(=O)N[C@H](CC(N)=O)C(=O)N[C@@H](CCCNC(=N)N)C(N)=O [[Nle^27, D-Asn^28]-rGRF(1-29)-NH2] (H-HADAIFTSSYRRILGQLYARKLLHEI[Nle][dN]R-NH2) — lower, 321%
